Earlier results in patent US11491120B2, “Pharmacological prophylactics against stress-induced affective disorders in females” (The Trustees of Columbia University in the City of New York, priority 2017, dated 2022).

Details: following ketamine infusion; cited from earlier work

N[C@@]1(c2ccccc2Cl)CCC[C@@H](O)C1=O [(2R,6R;2S,6S)-HNK, (2R,6R;2S,6S)-hydroxynorketamine]
Share of the original ketamine dose found as metabolite in the brain: 15%
